Reference: patent US20120179381A1, “TOXICITY SCREENING METHODS” (priority 2010, published 2012)

How the values were obtained:
[1] = test system: primary hepatocytes in sandwich culture; assay: Liver specific toxicity assays in primary hepatocytes in sandwich culture (GSH, mitochondria, oxidative stress, GGT); assay type: cell-based; details: FIG. 11
Description: (§1) Cell Culture: Primary hepatocytes in sandwich culture were obtained freshly-plated from outside vendors and used to assess general liver toxicity. Hepatocytes were plated in 24-well or 96-well microplates at a density of 400 K/well and 100 K/well, respectively, and kept at 37° C., 5% CO2 in a humidified incubator. Sandwich culture plates have a collagen substratum with Matrigel overlay, optimal growth conditions for hepatocytes with intact and functional bile canalicular networks. After 3 days in culture, cells were shipped to the inventor. Upon receipt, medium was replaced with fresh Williams E medium (Sigma) containing 10% bovine serum (Invitrogen), and cells were acclimated overnight prior to treatment (Hewitt et al. 2007).
(§2) Cytotoxicity: ATP was measured using an ATP-Lite kit from Perkin Elmer according to the manufacturer's instructions. Membrane integrity was monitored by determining the presence of α-Glutathione S-transferase (α-GST), released into the culture medium using an ELISA assay (Argutus Medical). Intracellular glutathione levels were determined essentially as described by Griffith (1980) with modifications. Cell mass in each well was measured with propidium iodide (PI). This specific nucleic acid binding dye fluoresces when intercalated within the nucleic acids. After incubation, the test compound was removed by aspiration of the media and Triton X-100 solution containing propidium iodide was added to permeabilized cells.
8-ISO levels were determined using an ELISA. 8-ISO is a member of a family of eicosanoids produced non-enzymatically by random oxidation of tissue phospholipids by oxygen radicals. Therefore, an increase in 8-ISO is an indirect measure of increased lipid peroxidation (Vacchiano and Tempel, 1994).
γ-Glutamyltransferase (GGT) activity was measured using the Catachem GGT kit with modifications. After completion of exposures, media was removed from the plates and cell and cell supernatants were stored at −80° C. until analyzed.

OCT2 = OCT2 (Sus scrofa, UniProt O02713); details: Cimetidine at 500 μM or 1 mM; LLC-PK1 cell model; FIG. 4
Chain of OCT2 (O02713 whole entry): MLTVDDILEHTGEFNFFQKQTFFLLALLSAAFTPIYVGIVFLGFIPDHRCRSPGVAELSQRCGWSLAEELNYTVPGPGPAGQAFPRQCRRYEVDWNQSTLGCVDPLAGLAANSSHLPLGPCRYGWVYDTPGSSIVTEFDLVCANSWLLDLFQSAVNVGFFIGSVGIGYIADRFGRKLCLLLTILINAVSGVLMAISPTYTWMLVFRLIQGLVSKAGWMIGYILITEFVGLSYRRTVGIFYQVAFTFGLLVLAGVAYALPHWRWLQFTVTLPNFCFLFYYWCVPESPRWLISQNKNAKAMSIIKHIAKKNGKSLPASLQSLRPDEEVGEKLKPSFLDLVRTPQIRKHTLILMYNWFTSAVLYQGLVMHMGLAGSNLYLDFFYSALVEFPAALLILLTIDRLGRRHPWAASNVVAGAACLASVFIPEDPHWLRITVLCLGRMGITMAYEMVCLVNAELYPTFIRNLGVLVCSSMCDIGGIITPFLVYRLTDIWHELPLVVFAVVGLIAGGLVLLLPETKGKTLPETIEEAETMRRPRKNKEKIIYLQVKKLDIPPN
Description: (§3) Cell Culture: Two cell types were used in this Example—primary human renal proximal tubule cells (hRPTCs) and a well characterized porcine renal proximal tubule (LLC-PK1) cell line. The hRPTCs were obtained from Lonza, Clonetics (Walkersville, Md.) and the LLC-PK1 was obtained from ATCC.
(§4) Establishing Transwell Cultures: The hRPTCs were seeded into Corning transwell-COL 24-well tissue culture plates at a density of 7.4×10^4 cells/well. LLC-PK1 cells were seeded into BD 351181 transwell 24-well tissue culture plates at a cell density of 1.65×10^5 cells/well (FIG. 3). On day 6 of incubation, formation of tight-junctions between cells was determined by Lucifer Yellow and Mannitol. The growth medium used with the hRPTCs was modified DMEM/Ham's F-12, and the medium used for LLC-PK1 was DMEM with 10% FBS (Elwi et al. 2009; Morshed and McMartin, 1995).
(§5) Transport Assays: To determine transporter specific activity, several known substrates were selected: TEA (OCT1 and OCT2), Digoxin (OATP4C1), Metformin (OCT2 basolateral and MATE1 apical). LLC-PK1 cells were seeded in BD 351181 24-well tissue culture plates at a cell density of 1.65×10^5 cells/well. After culturing for 6 days, apical and basolateral chambers were washed at room temperature with D-PBS buffer (containing 137 mM NaCl, 3 mM KCl, 8 mM Na2HPO4, 1.5 mM KH2PO4, 1 mM CaCl2, 0.5 mM MgCl2 and 5 mM D-glucose; pH 7.4) then incubated with non-radiolabeled substrate on both apical and basolateral sides for 60 minutes. Media was removed and the cells rinsed with buffer prior to adding the radiolabeled substrate. Radiolabeled substrate (with or without inhibitor) was added to apical or basolateral chambers, and samples were collected from the opposite side at 40 minutes. Cellular uptake was determined by washing the transwell membranes containing the cells twice with ice-cold D-PBS, then transferring the insert with cells to scintillation vials containing 2% Triton X-100. Scintillation was counted using Opti-Flour (Perkin Elmer) and in a Packard Tri-Carb 2100TR liquid scintillation counter.

hOCT2 = hOCT2 (Homo sapiens, UniProt O15244); details: hRPTCs; FIG. 4
Chain of hOCT2 (O15244 whole entry): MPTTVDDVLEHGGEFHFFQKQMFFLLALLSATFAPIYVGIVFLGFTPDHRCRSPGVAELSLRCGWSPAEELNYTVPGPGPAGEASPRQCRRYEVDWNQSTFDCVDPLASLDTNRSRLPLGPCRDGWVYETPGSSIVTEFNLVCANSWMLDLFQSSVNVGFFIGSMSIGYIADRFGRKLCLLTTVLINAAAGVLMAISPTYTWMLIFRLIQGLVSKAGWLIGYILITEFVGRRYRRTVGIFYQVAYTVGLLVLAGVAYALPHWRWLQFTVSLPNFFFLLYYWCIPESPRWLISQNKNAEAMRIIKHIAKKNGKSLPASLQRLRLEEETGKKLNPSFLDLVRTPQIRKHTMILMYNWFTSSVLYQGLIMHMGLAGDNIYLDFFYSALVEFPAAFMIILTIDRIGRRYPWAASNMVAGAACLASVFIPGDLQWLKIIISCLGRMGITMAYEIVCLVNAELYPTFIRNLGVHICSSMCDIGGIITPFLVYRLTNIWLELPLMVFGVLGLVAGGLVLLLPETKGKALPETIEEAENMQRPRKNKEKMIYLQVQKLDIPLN
Description: as §3, §4, §5

[2] = test system: primary hepatocytes in sandwich culture; Rat (H4IIE) cells; assay: General cell health / mitochondrial function (ATP) cytotoxicity assays of the liver toxicity screen; assay type: cell-based; details: for IC50: Rattus norvegicus, H4IIE, Table 2, unit inferred
Description: as §1
Rat (H4IIE) cells were seeded in flat bottom 96-well plates at a density of 10,000 cells/well in Eagles Minimum Essential Medium (Sigma Chemical) supplemented with 10% bovine serum and 10% calf serum (Invitrogen). Cells were allowed to equilibrate for approximately 48 hours to allow cells to move into a stable growth phase prior to treatment.
as §2

CYP3A = assay: Inhibition of CYP3A; assay type: in vitro ADME; details: Table 2; number or Y/N, unit inferred
[3] = Table 2; Y/N; cited from earlier work
BSEP [4] = molecular target: T1, BSEP (UniProt O95342, species not given); assay: BSEP cell-free transport assay; assay type: biochemical, Rat or human; details: BSEP cell-free transport assay (GenoMembrane); Table 2; number or Y/N for inhibition, unit inferred
T1 construct: rows headed: BSEP
Description: (§6) Rat or human BSEP cell-free assay were performed according to GenoMembrane protocol for BSEP transport analysis.

hRPTC = assay: Cisplatin cytotoxicity in primary human renal proximal tubule cells (ATP, cell number, membrane integrity, GGT); assay type: cell-based; details: FIG. 6, read-out: IC50 for ATP depletion
Description: Cytotoxicity: Cell viability was determined by measuring intracellular ATP levels with ATP-Lite from Perkin Elmer according to the manufacturer's instructions. Cell proliferation was determined from bromodeoxyuridine (BrdU) incorporation. Membrane integrity was measured using glutathione S-transferase (GST) as a leakage marker (Argutus). The GST assay was done according to the manufacturer's instructions. Gamma-glutamyl transferase activity (GGT) was measured using the Catachem GGT kit with modifications.

[5] = test system: primary hepatocytes in sandwich culture; Rat (H4IIE) cells; assay: Intracellular glutathione (GSH) levels, liver toxicity screen; assay type: cell-based; details: FIG. 12, read-out: depleting intracellular glutathione levels, IC50
Description: as §1, with “2007). […]” for “2007).”
Cytotoxicity: ATP was measured using an ATP-Lite kit from Perkin Elmer according to the manufacturer's instructions. Membrane integrity was monitored by determining the presence of α-Glutathione S-transferase (α-GST), released into the culture medium using an ELISA assay (Argutus Medical). Intracellular glutathione levels were determined essentially as described by Griffith (1980) with modifications. Cell mass in each well was measured with propidium iodide (PI). […]

BSEP [6] = assay: BSEP cell-free transport assay; assay type: biochemical, Rat or human; details: Table 2; number or Y/N for inhibition, unit not given
Description: as §6

For S=C=Nc1cccc2ccccc12 [ANIT, α-naphthyl-isothiocyanate], which “canalicular membrane integrity (GGT release)” value [1] is on record?
The value was “damaged”.

And the glutathione [1]?
The glutathione was “decreased”.

And the mitochondria [1]?
Its mitochondria is “disrupted”.

What about the oxidative stress [1] of the same molecule?
Its oxidative stress is “increased”.

Which “basolateral to apical flux (metformin), effect of inhibitor” value (OCT2) does the source give for CN/C(=N/CCSCc1nc[nH]c1C)NC#N [Cimetidine] here?
The value was “inhibited”.

What about the “cellular uptake (metformin), effect of inhibitor” value (OCT2) of the same molecule?
The value was “inhibited”.

What about the “basolateral-to-apical flux (metformin), effect of inhibitor” value (hOCT2) of the same molecule?
The value was “not inhibited”.

And the “cellular uptake (metformin), effect of inhibitor” value (hOCT2)?
The value was “inhibited”.

Which results are given for CCC(C)n1ncn(-c2ccc(N3CCN(c4ccc(OCC5COC(Cn6cncn6)(c6ccc(Cl)cc6Cl)O5)cc4)CC3)cc2)c1=O (stereo not shown) [Itraconazole]?
IC50 [2]: 150 µM; IC50 (CYP3A): 2.3 µM

Which “Clin Cholestatic” value [3] does the source give for CCc1ccc(CCOc2ccc(CC3SC(=O)NC3=O)cc2)nc1 (stereo not shown) [Pioglitazone] here?
The value was “Y-reversible”.

And the IC50 [2]?
The IC50 was greater than 300 µM.

What about the IC50 (BSEP [4]) of the same molecule?
The IC50 was 5 µM.

For CN(CCOc1ccc(CC2SC(=O)NC2=O)cc1)c1ccccn1 (stereo not shown) [Rosiglitazone], which IC50 [2] is on record?
The IC50 was greater than 300 µM.

And the IC50 (BSEP [4])?
The IC50 was 8 µM.

For N.N.[Cl][Pt][Cl] [cisplatin], which IC50 (hRPTC) is on record?
Its IC50 is roughly 80 µM.

For CCc1nn(CCCN2CCN(c3cccc(Cl)c3)CC2)c(=O)n1CCOc1ccccc1 [nefazodone], which “general cell health, toxicity relative to the other non-tricyclic antidepressants” value ([2]; FIG. 12, comparison of three non-tricyclic antidepressants) is on record?
The value was “most toxic”.

And the IC50 [5]?
Its IC50 is less than 50 µM.

What about the BSEP (BSEP [6]) of the same molecule?
The BSEP was “inhibition”.
